Measurements reported in US7544768B2, “Peptides for inducing apoptosis in tumor cells” (Deutsches Krebsforschungszentrum Stiflung des Offentlichen …, priority 2002, dated 2009).

Experiments:
Assay in all cases: Colony formation assay, transfected expression vectors
Type in all cases: cell-based
[1] = tested on: livin-expressing HeLa cells; settings: nucleic acid coding for peptide transfected; FIG. 3
Description: (§1) Expression vectors bearing the nucleic acid coding for peptide number 75 (corresponds to SEQ ID No: 127 or number 41 of TABLE 2) or bearing the nucleic acid coding for control peptide were introduced in HeLa cells and livin-negative C33a cells. The cells were selected for stable transfectants.
(§2) The nucleic acids coding for the peptides of TABLE 3 were cloned into mammalian expression vectors and transfected into different cells to observe their further growth. By using a HIS-tag it was possible to verify that all peptide sequences could be expressed.

[2] = tested on: livin-negative C33a cells; settings: nucleic acid coding for peptide transfected; FIG. 3
Description: as §1, §2

[3] = tested on: MeWo (melanoma cells); settings: nucleic acid coding for peptide transfected
Description: as §2

GSRCIRRRISILFFVFRVLRSRRVLRSAEIYES* (randomized peptide that bind to particular IAPs) [compound 75]
growth of livin-expressing HeLa cells [1]: blocked the growth | growth of livin-negative C33a cells [2]: not affected | growth of MeWo (melanoma cells) [3]: blocked the growth
